The values below come from patent US20150266857A1, “NOVEL 3-INDOL SUBSTITUTED DERIVATIVES, PHARMACEUTICAL COMPOSITIONS AND METHODS FOR USE” (iTeos Therapeutics, priority 2014, published 2015).

Counter-ions that a name gives are not always drawn.

What is called IC50 is the concentration that gives 50% inhibition. Read a high IC50 as weaker potency.

The target of the assay is T1, human glioblastoma A172 cells, naturally expressing hTDO2 (Homo sapiens, UniProt P48775).
T1 construct: human glioblastoma A172 cells, naturally expressing hTDO2; endogenous in cells; host or cells: human glioblastoma A172 cells (ATCC CRL-1620)
The experiment in a line: Cellular assay for TDO2 activity, A172 cells. It is filed as cell-based. Conditions: overnight incubation, kynurenine in supernatant. As to the method:
The compounds of formula I inhibit the activity of human TDO2 in cells that constitutively express TDO2, such as A172 cells. A172 is a cell line derived from human brain glioblastoma cells. The cells are available from the American Type Culture Collection (ATCC®) as CRL-1620™
The assay (adapted from Pilotte L et al., Proc Natl Acad Sci USA, 2012, 109(7), 2497-502) was performed in 96-well flat bottom plates seeded with human glioblastoma A172 cells, naturally expressing hTDO2 (prepared as described in Tilman et al., Mol Cancer, 2007, 17(6), 80), at a concentration of 1.25×10^4 cells/well in a final volume of 200 μL. To determine TDO, the cells were incubated overnight at 37° C. at 5% CO2 in IMDM (Invitrogen) supplemented with 2% FBS and 2% penicillin/streptomycin in the presence of the compounds of the present invention, at different concentrations.
The plates were then centrifuged 5 min at 1000 rpm, and 100 μL of the supernatant were collected in a conical plate, 30 uL of TCA 30% were added and a further centrifugated at 3000×g for 10 minutes. 100 μL of the supernatant were collected in a flat bottomed plate and 100 μL of 2% (w/v) 4-(dimethylamino)-benzaldehyde in acetic acid and incubated for 5 min at room temperature. Kynurenine concentrations were determined by measuring the absorbance at 480 nm. A standard curve was made with pure kynurenine. The TDO activity was measured as described above using ten serial concentrations of the compounds of the present invention. Data were fitted using the Prism™ software (GraphPad Software, Inc.) using standard parameters.

T1 sequence (P48775 whole entry): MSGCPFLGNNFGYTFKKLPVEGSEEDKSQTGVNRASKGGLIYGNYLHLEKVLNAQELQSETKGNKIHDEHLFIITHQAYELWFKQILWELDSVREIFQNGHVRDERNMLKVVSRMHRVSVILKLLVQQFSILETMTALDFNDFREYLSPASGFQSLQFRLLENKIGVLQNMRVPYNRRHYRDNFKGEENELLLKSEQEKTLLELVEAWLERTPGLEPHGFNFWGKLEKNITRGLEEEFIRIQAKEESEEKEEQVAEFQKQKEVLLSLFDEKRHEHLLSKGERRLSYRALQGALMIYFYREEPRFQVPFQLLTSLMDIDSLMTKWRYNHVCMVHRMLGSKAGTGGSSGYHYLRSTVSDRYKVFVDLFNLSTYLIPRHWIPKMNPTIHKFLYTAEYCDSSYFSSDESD

In turn, `CS(=O)(=O)NCc1nc2ccc(-c3c[nH]c4cc(Cl)ccc34)cc2o1` [Compound 127, N-((6-(6-chloro-1H-indol-3-yl)benzo[d]oxazol-2-yl)methyl)methanesulfonamide] displayed an IC50 of 3.78 µM.

In turn, `O=C(CCn1ncc2cc(-c3c[nH]c4cc(F)ccc34)ccc21)NCCO` [Compound 89, 3-(5-(6-fluoro-1H-indol-3-yl)-1H-indazol-1-yl)-N-(2-hydroxyethyl)propanamide] yielded an IC50 of 0.205 µM. This IC50 lies about 18-fold lower than the previous one. The same measure for `c1ccc2c(-c3ccc4ncoc4c3)c[nH]c2c1` [Compound 109, 6-(1H-indol-3-yl)benzo[d]oxazole]: 0.446 µM.

Regarding `c1ccc2c(-c3ccc4cn[nH]c4c3)c[nH]c2c1` [Compound 108, 6-(1H-indol-3-yl)-1H-indazole], half-maximal inhibition (IC50) was put at 0.599 µM. The IC50 values of the last two compounds are within 1.5-fold of each other. `CN(C)CCNC(=O)CCn1ncc2cc(-c3c[nH]c4cc(F)ccc34)ccc21` [Compound 88, N-(2-(dimethylamino)ethyl)-3-(5-(6-fluoro-H-indol-3-yl)-1H-indazol-1-yl)propanamide]: half-maximal inhibition (IC50) was put at 0.17 µM.

On to `CN1CCC[C@H]1C(=O)NCc1nc2ccc(-c3c[nH]c4cc(F)ccc34)cc2o1` [Compound 115, (S)—N-((6-(6-fluoro-1H-indol-3-yl)benzo[d]oxazol-2-yl)methyl)-1-methylpyrrolidine-2-carboxamide], for which the IC50 turned out to be 0.349 µM. Next, `NC(=O)CCn1cnc2cc(-c3c[nH]c4cc(F)ccc34)ccc21` [Compound 94, 3-(5-(6-fluoro-1H-indol-3-yl)-1H-benzo[d]imidazol-1-yl)propanamide]: 4.64 µM; `c1ccc2c(-c3ccc4[nH]ncc4c3)c[nH]c2c1` [Compound 104, 5-(1H-indol-3-yl)-1H-indazole]: 0.464 µM. As to `CS(=O)(=O)NC1CCN(CCS(=O)(=O)NCc2nc3ccc(-c4c[nH]c5cc(F)ccc45)cc3o2)CC1` [Compound 126, N-((6-(6-fluoro-1H-indol-3-yl)benzo[d]oxazol-2-yl)methyl)-2-(4-(methylsulfonamido)piperidin-1-yl)ethanesulfonamide], the IC50 turned out to be 0.826 µM. In the case of `CS(=O)(=O)CCNC(=O)CCn1ncc2cc(-c3c[nH]c4cc(F)ccc34)ccc21` [Compound 90, 3-(5-(6-fluoro-1H-indol-3-yl)-1H-indazol-1-yl)-N-(2-(methylsulfonyl)ethyl)propanamide], the IC50 came out at 0.24 µM. The same measure for `NC(=O)Cn1c(=O)oc2cc(-c3c[nH]c4ccc(F)cc34)ccc21` [Compound 131, 2-(6-(5-fluoro-1H-indol-3-yl)-2-oxobenzo[d]oxazol-3(2H)-yl)acetamide]: 2.38 µM; for `CN1C(=O)c2cc(-c3c[nH]c4cc(F)ccc34)ccc2S1(=O)=O` [Compound 138, 5-(6-fluoro-H-indol-3-yl)-2-methylbenzo[d]isothiazol-3(2H)-one 1,1-dioxide]: 3.68 µM. Regarding `Fc1ccc2c(-c3ccc4sccc4c3)c[nH]c2c1` [Compound 72, 3-(benzo[b]thiophen-5-yl)-6-fluoro-1H-indole], half-maximal inhibition (IC50) required 0.442 µM. Next, `CC(=O)NCc1nc2cc(-c3c[nH]c4cc(F)ccc34)ccc2o1` [Compound 73, N-((5-(6-fluoro-1H-indol-3-yl)benzo[d]oxazol-2-yl)methyl)acetamide]: 0.363 µM; `NS(=O)(=O)NCc1nc2ccc(-c3c[nH]c4cc(F)ccc34)cc2o1` [Compound 117, Amino{[6-(6-fluoroindol-3-yl)benzoxazol-2-yl]methyl}sulfonamide]: 0.278 µM; `O=C1Cc2ccc(-c3c[nH]c4cc(F)ccc34)cc2N1` [Compound 92, 6-(6-fluoro-1H-indol-3-yl)indolin-2-one]: 0.508 µM.

Compound `NCc1nc2ccc(-c3c[nH]c4cc(F)ccc34)cc2o1` [Compound 76, (6-(6-fluoro-1H-indol-3-yl)benzo[d]oxazol-2-yl)methanamine hydrochloride] yielded an IC50 of 0.44 µM. `O=c1oc2cc(-c3c[nH]c4cc(F)ccc34)ccc2n1C1CCNCC1` [Compound 136, 6-(6-fluoro-1H-indol-3-yl)-3-(piperidin-4-yl)benzo[d]oxazol-2(3H)-one]: half-maximal inhibition (IC50) was put at 0.32 µM.
